Here are results for ten compounds from PubChem BioAssay (NCI).

Values joined by “and” are separate entries in the source; they are usually repeats but may differ in a detail not shown here. Equal values may be shown once.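 Step 1: Grow cells in 96-well plates. Step 2: Expose to compound for 48 hours at 5 concentrations. Step 3: Interpolate endpoints linearly; if unreached, use highest concentration. GI50 is the concentration that inhibits growth by half. Definition used: TGI = concentration required for complete inhibition of growth.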

Test systems include IGROV1 ovarian; NCI-H460 lung; NCI-H226 lung; SK-MEL-28 melanoma; SF-295 CNS; MDA-MB-435; HCT-116 colon; SW-620 colon; LXFL 529 NSCLC; DLD-1 colon.
Common to all, as to assay: DTP human tumour cell line panel, 48 h

As usually defined, the TGI is the concentration at which net growth stops. Higher therefore signals lower sensitivity of the cells. Regarding `CN(C)CC1CCCCCC(Br)C1=O` (centres undefined), the TGI is greater than 69.4 µM in the experiment with IGROV1 ovarian; 49.6 µM in the experiment with NCI-H460 lung; greater than 53.9 µM in the experiment on NCI-H226 lung; 34 µM in the experiment on SK-MEL-28 melanoma; greater than 100 µM in the experiment with SF-295 CNS; 34.1 µM in the experiment on MDA-MB-435. Moreover, the total growth inhibition concentration (TGI) with HCT-116 colon is 5.1 µM; in the experiment on SW-620 colon it was 12.7 µM.

As a reminder, the GI50 is the concentration that inhibits growth by half. `O=C(Oc1ccccc1Cl)c1ccccc1Nc1cccc(C(F)(F)F)c1`: the GI50 with IGROV1 ovarian is 28 µM; in the experiment on NCI-H460 lung, 37.3 µM; in the experiment with NCI-H226 lung, 20.2 µM; with SK-MEL-28 melanoma, 38.5 µM; in the experiment with SF-295 CNS, 24.8 µM; in the experiment with MDA-MB-435, 11.7 µM. Moreover, the GI50 in the experiment with HCT-116 colon is 14.7 µM; in the experiment on SW-620 colon, 8.07 µM. The TGI was greater than 100 µM with IGROV1 ovarian; greater than 100 µM in the experiment with NCI-H460 lung; 47.9 µM with NCI-H226 lung; greater than 100 µM with SK-MEL-28 melanoma; 54.3 µM in the experiment with SF-295 CNS; 32.3 µM with MDA-MB-435. Moreover, the TGI with HCT-116 colon came out at 40.9 µM; in the experiment on SW-620 colon, 54.4 µM.

Turning to `OCCn1cc(-c2cnc3nnn(Cc4ccc5ncccc5c4)c3n2)cn1`, the GI50 in the experiment on IGROV1 ovarian, with NCI-H460 lung, in the experiment with NCI-H226 lung, in the experiment with SK-MEL-28 melanoma, with MDA-MB-435 and with HCT-116 colon was greater than 100 µM throughout. Also, in the experiment on SW-620 colon, the GI50 is greater than 100 µM. For the same compound, the TGI with IGROV1 ovarian, in the experiment on NCI-H460 lung, in the experiment with NCI-H226 lung, with SK-MEL-28 melanoma, in the experiment with SF-295 CNS and in the experiment with MDA-MB-435 was greater than 100 µM in each case. The TGI in the experiment with HCT-116 colon and in the experiment on SW-620 colon was greater than 100 µM throughout.

With `O=c1c2c(=NCCN3CCCC3)cc3c(=O)n(CCCN4CCOCC4)c(=O)c4ccc(c(O)n1CCCN1CCOCC1)c2c4-3`, the GI50 with IGROV1 ovarian was 0.0479 µM; with NCI-H460 lung, 0.0791 µM; in the experiment on NCI-H226 lung it was 0.155 µM; in the experiment with SK-MEL-28 melanoma it was 0.454 µM; in the experiment on SF-295 CNS it was 0.231 µM; with MDA-MB-435, 0.122 µM. The GI50 was less than 0.0174 µM in the experiment with HCT-116 colon and less than 0.0192 µM in the experiment on SW-620 colon. The TGI in the experiment on IGROV1 ovarian was determined as 1.5 µM; with NCI-H460 lung, 1.08 µM; in the experiment on NCI-H226 lung, 0.83 µM; in the experiment with SK-MEL-28 melanoma, 1.74 µM; in the experiment with SF-295 CNS, 0.84 µM; in the experiment with MDA-MB-435, 0.264 µM. Besides, the TGI with HCT-116 colon was found to be 1.09 µM; in the experiment with SW-620 colon it was 1.07 µM.

`CC(C)=CC(=O)N[C@@H]1CC2CCC3C(CC[C@@]4(C)C3CC[C@@H]4C(C)N(C)C)[C@@]2(C)C[C@@H]1O` (some centres undefined): the GI50 with IGROV1 ovarian was 5.54 µM; in the experiment with NCI-H460 lung it was 2.53 µM; with NCI-H226 lung, 8.04 µM; in the experiment on SK-MEL-28 melanoma, 1.91 µM; with SF-295 CNS, 3.45 µM; in the experiment on MDA-MB-435, 2.9 µM. In addition, the GI50 with HCT-116 colon is 1.63 µM; with SW-620 colon it was 2.86 µM. The concentration for total growth inhibition (TGI) in the experiment with IGROV1 ovarian was 25.1 µM; with NCI-H460 lung it was 8.88 µM; in the experiment with NCI-H226 lung, greater than 41.4 µM; in the experiment on SK-MEL-28 melanoma it was 3.89 µM; with SF-295 CNS it was 16.6 µM; with MDA-MB-435, 10.1 µM. The TGI with HCT-116 colon was determined as 5.27 µM; in the experiment on SW-620 colon, 10.5 µM.

`CCOc1cc2c(=O)oc3c(OC)ccc4ccc(c1OC)c2c43`: the TGI with IGROV1 ovarian, in the experiment with NCI-H460 lung, with NCI-H226 lung, in the experiment on SK-MEL-28 melanoma, in the experiment with SF-295 CNS and in the experiment on MDA-MB-435 was greater than 100 µM throughout. Besides, the TGI is 20.4 µM in the experiment on HCT-116 colon and greater than 100 µM with SW-620 colon.

As for `COc1cc(C(O)C(=O)c2cnc3cc([N+](=O)[O-])ccc3n2)ccc1O` (centres undefined), the TGI with IGROV1 ovarian, with LXFL 529 NSCLC, in the experiment with NCI-H460 lung, in the experiment on DLD-1 colon, in the experiment on SF-295 CNS and with HCT-116 colon was greater than 100 µM in each case. This compound also displayed a TGI in the experiment on SW-620 colon greater than 100 µM.

As for `CCCCCCCCCCCC1=NC(C)(C)CN1CC(C)O` (centres undefined), the GI50 in the experiment on IGROV1 ovarian is 1.89 µM; with NCI-H460 lung, 2.35 µM; in the experiment on NCI-H226 lung it was 13.1 µM; in the experiment on SK-MEL-28 melanoma, 1.75 µM; in the experiment with SF-295 CNS, 4.36 µM; in the experiment on MDA-MB-435 it was 2.05 µM. Moreover, the results for the GI50 in the experiment with HCT-116 colon and in the experiment with SW-620 colon were 2.06 µM and 1.85 µM, respectively. In addition, the TGI in the experiment on IGROV1 ovarian is 4.75 µM; in the experiment with NCI-H460 lung, 5.05 µM; in the experiment with NCI-H226 lung it was 28.6 µM; in the experiment with SK-MEL-28 melanoma it was 3.26 µM; with SF-295 CNS it was 17.8 µM; in the experiment with MDA-MB-435, 4.91 µM. Also, the TGI with HCT-116 colon amounted to 4.9 µM; in the experiment on SW-620 colon, 3.91 µM.

With `COc1ccc(C2=N[C@@H](c3ccc(Cl)cc3)[C@@H](c3ccc(Cl)cc3)N2C(=O)N2CCNC(=O)C2)c(OC(C)C)c1`, the GI50 in the experiment on IGROV1 ovarian was 13.1 µM and 6.5 µM and 5.08 µM; in the experiment with NCI-H460 lung it was 14.8 µM and 3.04 µM and 2.17 µM; in the experiment with NCI-H226 lung, 13.7 µM and 1.57 µM and 1.56 µM; with SK-MEL-28 melanoma it was 15.8 µM and 15.3 µM and 16.5 µM; in the experiment with SF-295 CNS, 12.6 µM and 12.9 µM and 14.9 µM; in the experiment with MDA-MB-435 it was 14.2 µM and 13.6 µM and 16.1 µM. Moreover, the GI50 with HCT-116 colon was 12.4 µM and 3.82 µM and 3.53 µM; in the experiment with SW-620 colon, 17.1 µM and 18.2 µM and 16.7 µM. Further, the TGI in the experiment with IGROV1 ovarian is 29.4 µM and 26.2 µM and 26.5 µM; in the experiment on NCI-H460 lung, 29.9 µM and 16.3 µM and 14.8 µM; in the experiment on NCI-H226 lung, 30.2 µM and 6.83 µM and 5.86 µM; in the experiment on SK-MEL-28 melanoma, 30.8 µM and 29.6 µM and 32.2 µM; in the experiment with SF-295 CNS, 27.3 µM and 26.8 µM and 30.4 µM; in the experiment with MDA-MB-435, 27.9 µM and 27.5 µM and 33.3 µM. The TGI is 25.4 µM and 18.4 µM and 18.7 µM in the experiment on HCT-116 colon; 33.6 µM and 37.4 µM and 34 µM in the experiment on SW-620 colon.

For `COc1ccc(-n2cc(-c3cc(OC)c(OC)c(OC)c3)[nH]c2=S)cc1Cl`, the GI50 in the experiment on IGROV1 ovarian is 25.6 µM; with NCI-H460 lung, 18.9 µM; in the experiment with NCI-H226 lung it was 27.1 µM; in the experiment on SK-MEL-28 melanoma, 63 µM; with SF-295 CNS it was 43 µM; with MDA-MB-435, greater than 100 µM. Further, the GI50 is 24.4 µM with HCT-116 colon and greater than 100 µM in the experiment with SW-620 colon. Also, the TGI in the experiment on IGROV1 ovarian, in the experiment on NCI-H460 lung, in the experiment on NCI-H226 lung, in the experiment on SK-MEL-28 melanoma, in the experiment on SF-295 CNS and in the experiment with MDA-MB-435 was greater than 100 µM each time. In addition, the TGI in the experiment with HCT-116 colon and in the experiment with SW-620 colon was greater than 100 µM in each case.
